Reference: article PMC10763615, “Identification and engineering of potent cyclic peptides with selective or promiscuous binding through biochemical profiling and bioinformatic data analysis” (RSC Chemical Biology, 2023)
Read-outs that look alike come from different tables or passages of the source. Positions of bridges follow the written chain, without caps; N, C: chain ends. Residues, ends and D or L forms follow the SMILES beside them.

Legend:
Format in all cases: binding
FGF-R4 ECD = molecular target: T1, FGF-R4 ECD (Homo sapiens, UniProt P22455); experiment: single concentration BLI of crude peptides; settings: read-out: KD (4)
T1 construct: DNA constructs for the extracellular domain (ECD) of human FGF-; HPC4 (C); made in house; host or cells: HEK 293-6E
T1 sequence (P22455 22-369 limits assumed): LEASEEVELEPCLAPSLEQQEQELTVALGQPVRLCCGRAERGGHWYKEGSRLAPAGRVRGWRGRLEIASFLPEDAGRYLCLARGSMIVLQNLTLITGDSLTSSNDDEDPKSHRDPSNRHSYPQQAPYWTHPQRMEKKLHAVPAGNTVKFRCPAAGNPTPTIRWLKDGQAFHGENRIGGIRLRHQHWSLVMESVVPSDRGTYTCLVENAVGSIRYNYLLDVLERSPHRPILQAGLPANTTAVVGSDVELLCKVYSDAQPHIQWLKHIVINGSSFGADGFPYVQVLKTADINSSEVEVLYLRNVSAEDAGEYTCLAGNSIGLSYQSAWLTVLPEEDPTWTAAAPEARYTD
Summary of the method: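 Streptavidin biosensors carrying biotinylated FGF receptor ECD were immersed in peptide (~1 μM for crude single-point runs, a concentration series for purified peptides) and then in peptide-free buffer. KD was obtained by fitting the BLI association and dissociation curves.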

FGF-R1C ECD = molecular target: T2, FGF-R1C ECD (Homo sapiens, UniProt P11362); experiment: biochemical; set-up: DNA constructs for the extracellular domain (ECD) of human FGF-; HPC4 (C); made in house; host or cells: HEK 293-6E
T2 sequence (P11362 22-376 limits assumed): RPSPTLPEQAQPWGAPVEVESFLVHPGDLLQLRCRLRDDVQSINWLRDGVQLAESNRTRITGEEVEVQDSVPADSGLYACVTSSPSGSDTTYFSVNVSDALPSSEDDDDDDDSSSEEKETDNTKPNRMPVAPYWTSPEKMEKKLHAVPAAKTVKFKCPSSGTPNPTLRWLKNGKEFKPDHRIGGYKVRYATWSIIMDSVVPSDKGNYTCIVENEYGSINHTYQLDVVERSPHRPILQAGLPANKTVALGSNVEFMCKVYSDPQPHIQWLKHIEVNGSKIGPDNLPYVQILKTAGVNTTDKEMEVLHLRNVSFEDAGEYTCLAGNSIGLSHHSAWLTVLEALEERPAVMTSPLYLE
Summary of the method: (§1)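 Biolayer interferometry with biotinylated FGF-R ECD on streptavidin biosensors in PBS pH 7.4, 0.05% Tween-20, 0.01% BSA. Multi-concentration: purified peptide dilution series fitted to a multi-point KD model.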

FGF-R3C ECD = molecular target: T3, FGF-R3C ECD (Homo sapiens, UniProt P22607); experiment: biochemical; set-up: DNA constructs for the extracellular domain (ECD) of human FGF-; HPC4 (C); made in house; host or cells: HEK 293-6E
T3 sequence (P22607 23-375 limits assumed): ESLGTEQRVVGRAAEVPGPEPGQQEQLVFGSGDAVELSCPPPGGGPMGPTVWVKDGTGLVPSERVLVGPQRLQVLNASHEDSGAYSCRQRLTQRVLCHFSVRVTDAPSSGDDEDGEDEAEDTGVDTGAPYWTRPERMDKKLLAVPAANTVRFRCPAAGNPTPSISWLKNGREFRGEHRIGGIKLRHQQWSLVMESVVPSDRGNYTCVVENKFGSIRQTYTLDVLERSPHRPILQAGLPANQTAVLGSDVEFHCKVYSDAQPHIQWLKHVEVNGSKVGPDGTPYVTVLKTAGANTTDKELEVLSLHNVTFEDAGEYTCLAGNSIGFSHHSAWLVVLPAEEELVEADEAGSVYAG
Summary of the method: as §1

[1] = crude T18 selection 1 (1:1:1) peptides, single concentration BLI (Table S4)
[2] = crude NNK peptides, single concentration BLI (Table S3)

## CC[C@H](C)[C@@H]1NC(=O)[C@H](Cc2ccc(O)cc2)NC(=O)[C@H](Cc2ccc(O)cc2)NC(=O)[C@H](Cc2ccccc2)NC(=O)[C@H](CC(C)C)NC(=O)[C@H](CC(=O)O)NC(=O)[C@H](CCC(=O)O)NC(=O)[C@@H](NC(=O)[C@H](CCSC)NC(C)=O)CSSC[C@@H](C(=O)NCC(=O)N[C@@H](CO)C(=O)NCC(=O)N[C@@H](CO)C(=O)N[C@@H](CC(=O)O)C(=O)N[C@@H](Cc2ccc(O)cc2)C(=O)N[C@@H](CCCCN)C(=O)N[C@@H](CC(=O)O)C(=O)N[C@@H](CC(=O)O)C(=O)N[C@@H](CC(=O)O)C(=O)N[C@@H](CC(=O)O)C(=O)N[C@@H](CCCCN)C(N)=O)NC(=O)CNC(=O)[C@H](Cc2ccc(O)cc2)NC(=O)[C@H](CCCNC(=N)N)NC(=O)[C@H](CC(N)=O)NC(=O)[C@H]([C@@H](C)CC)NC1=O (Ac-MCEDLFYYIINRYGCGSGSDYKDDDDK-NH2; disulfide 2-15)
FGF-R4 ECD; [1]
  Kd: 0.018 µM
FGF-R1C ECD
  Kd: > 10 µM
FGF-R3C ECD
  Kd: > 10 µM

## CC[C@H](C)[C@@H]1NC(=O)[C@@H](NC(=O)[C@H](CCSC)NC(C)=O)CSSC[C@@H](C(=O)NCC(=O)N[C@@H](CO)C(=O)NCC(=O)N[C@@H](CO)C(=O)N[C@@H](CC(=O)O)C(=O)N[C@@H](Cc2ccc(O)cc2)C(=O)N[C@@H](CCCCN)C(=O)N[C@@H](CC(=O)O)C(=O)N[C@@H](CC(=O)O)C(=O)N[C@@H](CC(=O)O)C(=O)N[C@@H](CC(=O)O)C(=O)N[C@@H](CCCCN)C(N)=O)NC(=O)[C@@H]2CCCN2C(=O)[C@H](CCCNC(=N)N)NC(=O)[C@H](Cc2c[nH]c3ccccc23)NC(=O)[C@H](CCC(=O)O)NC(=O)[C@H](CCC(=O)O)NC(=O)[C@H](Cc2c[nH]c3ccccc23)NC(=O)[C@H](CCCCN)NC(=O)[C@H](CC(N)=O)NC(=O)[C@H](CCCCN)NC(=O)[C@H](CCCNC(=N)N)NC(=O)[C@H]([C@@H](C)O)NC1=O (Ac-MCITRKNKWEEWRPCGSGSDYKDDDDK-NH2; disulfide 2-15)
FGF-R4 ECD; [1]
  Kd: > 10 µM
FGF-R1C ECD
  Kd: > 10 µM
FGF-R3C ECD
  Kd: > 10 µM

## CC[C@H](C)[C@@H]1NC(=O)[C@H](CCCCN)NC(=O)[C@@H](NC(=O)[C@H](CCSC)NC(C)=O)CSSC[C@@H](C(=O)NCC(=O)N[C@@H](CO)C(=O)NCC(=O)N[C@@H](CO)C(=O)N[C@@H](CC(=O)O)C(=O)N[C@@H](Cc2ccc(O)cc2)C(=O)N[C@@H](CCCCN)C(=O)N[C@@H](CC(=O)O)C(=O)N[C@@H](CC(=O)O)C(=O)N[C@@H](CC(=O)O)C(=O)N[C@@H](CC(=O)O)C(=O)N[C@@H](CCCCN)C(N)=O)NC(=O)[C@H](C(C)C)NC(=O)[C@H](Cc2c[nH]c3ccccc23)NC(=O)[C@H](Cc2c[nH]c3ccccc23)NC(=O)[C@H](Cc2ccccc2)NC(=O)[C@H](CCCCN)NC(=O)[C@H](Cc2c[nH]cn2)NC(=O)[C@H](CC(=O)O)NC(=O)[C@H](C(C)C)NC(=O)[C@H](Cc2ccc(O)cc2)NC(=O)[C@H](Cc2c[nH]c3ccccc23)NC1=O (Ac-MCKIWYVDHKFWWVCGSGSDYKDDDDK-NH2; disulfide 2-15)
FGF-R4 ECD; [1]
  Kd: 0.002 µM
FGF-R1C ECD
  Kd: > 10 µM
FGF-R3C ECD
  Kd: > 10 µM

## CC[C@H](C)[C@@H]1NC(=O)[C@H](Cc2ccc(O)cc2)NC(=O)[C@H](C)NC(=O)[C@H](C(C)C)NC(=O)[C@H](Cc2ccc(O)cc2)NC(=O)CNC(=O)[C@H](Cc2c[nH]cn2)NC(=O)[C@H]([C@@H](C)CC)NC(=O)[C@H]([C@@H](C)CC)NC(=O)[C@H](CO)NC(=O)[C@H](CC(C)C)NC(=O)[C@H](CC(N)=O)NC(=O)[C@@H](NC(=O)[C@H](CCSC)NC(C)=O)CSSC[C@@H](C(=O)NCC(=O)N[C@@H](CO)C(=O)NCC(=O)N[C@@H](CO)C(=O)N[C@@H](CC(=O)O)C(=O)N[C@@H](Cc2ccc(O)cc2)C(=O)N[C@@H](CCCCN)C(=O)N[C@@H](CC(=O)O)C(=O)N[C@@H](CC(=O)O)C(=O)N[C@@H](CC(=O)O)C(=O)N[C@@H](CC(=O)O)C(=O)N[C@@H](CCCCN)C(N)=O)NC1=O (Ac-MCNLSIIHGYVAYICGSGSDYKDDDDK-NH2; disulfide 2-15)
FGF-R4 ECD; [1]
  Kd: 0.001 µM
FGF-R1C ECD
  Kd: > 10 µM
FGF-R3C ECD
  Kd: > 10 µM

## CC[C@H](C)[C@@H]1NC(=O)[C@H](CC(C)C)NC(=O)[C@H](Cc2ccccc2)NC(=O)[C@H](Cc2ccc(O)cc2)NC(=O)[C@H](CCCCN)NC(=O)[C@H](C)NC(=O)[C@@H](NC(=O)[C@H](CCSC)NC(C)=O)CSSC[C@@H](C(=O)NCC(=O)N[C@@H](CO)C(=O)NCC(=O)N[C@@H](CO)C(=O)N[C@@H](CC(=O)O)C(=O)N[C@@H](Cc2ccc(O)cc2)C(=O)N[C@@H](CCCCN)C(=O)N[C@@H](CC(=O)O)C(=O)N[C@@H](CC(=O)O)C(=O)N[C@@H](CC(=O)O)C(=O)N[C@@H](CC(=O)O)C(=O)N[C@@H](CCCCN)C(N)=O)NC(=O)[C@H](CCC(N)=O)NC(=O)[C@H](CCC(N)=O)NC(=O)[C@H](Cc2ccc(O)cc2)NC(=O)[C@H](C)NC(=O)[C@H](CCCNC(=N)N)NC(=O)[C@H](Cc2c[nH]c3ccccc23)NC1=O (Ac-MCAKYFLIWRAYQQCGSGSDYKDDDDK-NH2; disulfide 2-15)
FGF-R4 ECD; [1]
  Kd: 0.01 µM
FGF-R1C ECD
  Kd: > 10 µM
FGF-R3C ECD
  Kd: > 10 µM

## CSCC[C@H](NC(C)=O)C(=O)N[C@H]1CSSC[C@@H](C(=O)NCC(=O)N[C@@H](CO)C(=O)NCC(=O)N[C@@H](CO)C(=O)N[C@@H](CC(=O)O)C(=O)N[C@@H](Cc2ccc(O)cc2)C(=O)N[C@@H](CCCCN)C(=O)N[C@@H](CC(=O)O)C(=O)N[C@@H](CC(=O)O)C(=O)N[C@@H](CC(=O)O)C(=O)N[C@@H](CC(=O)O)C(=O)N[C@@H](CCCCN)C(N)=O)NC(=O)[C@H](C(C)C)NC(=O)[C@H](CCCNC(=N)N)NC(=O)[C@H](CCSC)NC(=O)[C@H](C(C)C)NC(=O)[C@H](CCCCN)NC(=O)[C@H](Cc2ccc(O)cc2)NC(=O)[C@H](CC(C)C)NC(=O)[C@H](CC(C)C)NC(=O)[C@H](C(C)C)NC(=O)CNC1=O (Ac-MCGVLLYKVMRVCGSGSDYKDDDDK-NH2; disulfide 2-13)
FGF-R4 ECD; [2]
  Kd: 0.124 µM
FGF-R1C ECD
  Kd: > 10 µM
FGF-R3C ECD
  Kd: > 10 µM

## CC[C@H](C)[C@@H]1NC(=O)[C@@H](NC(=O)[C@H](CCSC)NC(C)=O)CSSC[C@@H](C(=O)NCC(=O)N[C@@H](CO)C(=O)NCC(=O)N[C@@H](CO)C(=O)N[C@@H](CC(=O)O)C(=O)N[C@@H](Cc2ccc(O)cc2)C(=O)N[C@@H](CCCCN)C(=O)N[C@@H](CC(=O)O)C(=O)N[C@@H](CC(=O)O)C(=O)N[C@@H](CC(=O)O)C(=O)N[C@@H](CC(=O)O)C(=O)N[C@@H](CCCCN)C(N)=O)NC(=O)[C@H](CO)NC(=O)[C@H](CO)NC(=O)[C@H](CCCNC(=N)N)NC(=O)[C@H](Cc2c[nH]c3ccccc23)NC(=O)[C@H](CC(C)C)NC(=O)[C@H](CC(C)C)NC(=O)[C@H](Cc2ccccc2)NC(=O)[C@H]([C@@H](C)O)NC(=O)[C@H](CCCCN)NC1=O (Ac-MCIKTFLLWRSSCGSGSDYKDDDDK-NH2; disulfide 2-13)
FGF-R4 ECD; [2]
  Kd: > 10 µM
FGF-R1C ECD
  Kd: > 10 µM
FGF-R3C ECD
  Kd: > 10 µM

## CC[C@H](C)[C@@H]1NC(=O)[C@H](CCC(=O)O)NC(=O)[C@H](CCCNC(=N)N)NC(=O)[C@H](CCCCN)NC(=O)[C@@H](NC(=O)[C@H](CCSC)NC(C)=O)CSSC[C@@H](C(=O)NCC(=O)N[C@@H](CO)C(=O)NCC(=O)N[C@@H](CO)C(=O)N[C@@H](CC(=O)O)C(=O)N[C@@H](Cc2ccc(O)cc2)C(=O)N[C@@H](CCCCN)C(=O)N[C@@H](CC(=O)O)C(=O)N[C@@H](CC(=O)O)C(=O)N[C@@H](CC(=O)O)C(=O)N[C@@H](CC(=O)O)C(=O)N[C@@H](CCCCN)C(N)=O)NC(=O)[C@H](Cc2ccccc2)NC(=O)[C@H](C(C)C)NC(=O)[C@H](CC(C)C)NC(=O)[C@H](Cc2c[nH]c3ccccc23)NC(=O)[C@H](Cc2ccc(O)cc2)NC(=O)[C@H](CCCCN)NC1=O (Ac-MCKREIKYWLVFCGSGSDYKDDDDK-NH2; disulfide 2-13)
FGF-R4 ECD; [1]
  Kd: 0.008 µM
FGF-R1C ECD
  Kd: > 10 µM
FGF-R3C ECD
  Kd: > 10 µM
